# Reference: patent US20070148250A1, “Loading of a camptothecin drug into colloidal nanoparticles” (priority 2003, published 2007)
# How the values were obtained:
# Type in all cases: physicochemical
# [1] = Fraction of free (non-liposomally bound) CPT by Vivaspin 2 centrifugal filtration (MWCO 100 kDa) and UV-spectroscopy of the filtrate
# Experimental: For direct comparison, CPT-carboxylate loaded liposomes were made by one of the techniques as given in the literature. Liposomes, loaded with CPT-carboxylate produced by the inventive method were prepared with the same total composition. The fraction of free (non-liposomally bound) CPT was determined in both cases. The free CPT was determined by centrifugation with the centrifugal concentrator Vivaspin 2 (Vivasciences). By a membrane of MWCO 100 kDa, the molecularly dissolved solutes were separated from the colloidal particles. The concentration of CPT in the filtrate was determined by UV-spectroscopy. All measurements with camptothecin were made with tris/HCI buffer, pH 7.5, 10 mM or 20 mM.
# For the production of classically made formulations, the liposomes were formed directly in the aqueous solution of CPT carboxylate. By subsequent extrusion through membranes of 200 nm pore size homogeneous mixing and encapsulation was provided. The liposomes were made either by the ‘film method’ or by ‘ethanol injection’.
# For the film method, a solution of lipids in chloroform is evaporated in a round bottom flask. A thin dry lipid film is formed at the inner wall of the flask. For the production of empty liposomes, the film is reconstituted with water or buffer solution. For the production of CPT loaded liposomes, the film is reconstituted with the CPT-carboxylate solution. […]
# A lyophilisate of DOTAP liposomes (30 mM) was reconstituted with 2.088 ml of an aqueous solution of CPT carboxylate in water (1.4 mM). […] From the resulting preparation the fraction of free CPT was determined by centrifugation at different lipid concentrations.
# 1 ml of the DOTAP concentrate and 9 ml of CPT carboxylate solution, c=[…] were mixed. […] This preparation was diluted 1:10 1:25 and 1:50 and the fraction of free CPT was determined.
# Liquid DOTAP formulations were exposed to CPT-carboxylate solutions for different time scales. […] After the given time, the fraction of free CPT was determined for different dilutions. […]
# [2] = Solubility of camptothecin in buffered aqueous phase at different pH values; settings: 50 mM buffer, pH values below 7, within few days
# Experimental: In this measurements, the solubility of camptothecin in aqueous media at different pH values is investigated. Pure camptothecin carboxylate was dissolved in a buffered (50 mM) aqueous phase at different pH values. At different times the solutions were centrifuged in order to remove camptothecin lactone crystals and the remaining concentration of the camptothecin in the supernatant was determined by UV-vis spectroscopy. […] These concentrations are too low for sufficient pharmaceutical efficacy.
# [3] = Stability of camptothecin carboxylate in concentrated alkaline media (HPLC)
# Experimental: CPT-carboxylate can be obtained quantitatively from the lactone form of CPT by incubation the latter with at least an equimolar amount or an excess of base (e.g. NaOH or NH4OH). In the most simple approach CPT lactone is stirred with 1 M NaOH or NH4OH ovenight. Higher concentrations are favourable to accelerate the process.
# Camptothecin in the lactone form was dissolved at a concentration of 4.6 μg/ml in concentrated ammonia (NH4OH) in order to obtain the carboxylate form. HPLC analysis was performed directly after dissolving the lactone and after 19 days.
# [4] = Loading of aminofluorescein to DOTAP/DOPC liposomes, cross-flow filtration and UV-vis; settings: DOTAP/DOPC 1:1 liposomes, after three cycles of filtration
# Experimental: A 25 mM liposome formulation consisting of DOTAP/DOPC 1:1 in a solution of 5% glucose (w/v) was prepared. Briefly, a solution of DOTAP/DOPC in chloroform was put into a round bottom flask, and the solvent was evaporated in order to obtain a thin lipid film. The lipid film was reconstituted with the glucose solution to a total lipid concentration of 25 mM. The resulting multilamellar, polydisperse liposome suspension was extruded through a membrane of 200 nm pore size to obtain liposomes of uniform size.
# 10 ml of the liposome preparation and 10 ml of a 5 mM aqueous solution of aminofluorescein were combined.
# Subsequently, the molecularly dissolved components were removed by cross-flow filtration, using a VIVAFLOW filtration kit, […] and a Masterflex easy lod pump, model.
# 20 ml of the preparation were diluted with 20 ml glucose. By the subsequent dialysis, part of the solvent and the molecularly dissolved (low molecular) compound penetrated across the separation membrane, while the liposomes were retained. Filtration was performed until the volume of the original solution was reduced to half of the start volume. Then the lost volume was substituted by glucose solution and the filtration was started again. Three filtration cycles were performed.
# The concentration of aminofluorescein in the permeate and in the retained liposome suspension was determined by UV-vis spectroscopy.
compound,measurement,setting,value
"CC[C@@]1(O)C(=O)OCc2c1cc1n(c2=O)Cc2cc3ccccc3nc2-1 [Camptothecin, 20(S)-Camptothecine (1H-Pyrano[3′,4′:6,7]indolizino[1,2-b]quinoline-3,14 (4H,12H)-dione, 4-ethyl-4-hydroxy-, (S)—)]",loading of DOTAP liposomes with CPT at first time point after mixing,"[1]; DOTAP 15 mM, CPT carboxylate 0.75 mM, original concentration, Tris/HCl 10 mM pH 7.5",loading reached saturation
same,time up to which fraction of loaded drug increased,"[1]; diluted samples of DOTAP 15 mM/CPT 0.75 mM mixture, not stirred",up to 4 hours
same,concentration of camptothecin remaining in supernatant,[2],very low values
same,degradation by the alkaline medium (HPLC),"[3]; 4.6 μg/ml in concentrated ammonia (NH4OH), after 19 days",no indication for a degradation
CCC(O)(C(=O)O)c1cc2n(c(=O)c1CO)Cc1cc3ccccc3nc1-2 (centres unmarked) [camptothecin carboxylate],loading efficacy in DOTAP/DOPC liposomes,"[1]; 30-100% DOTAP, total lipid 15 mM, CPT 0.75 mM, additional presence of DOPC",only slightly reduced
same,chemical degradation,[3],no indication for chemical degradation
aminofluorescein,amount retained with the liposome suspension,[4]; 5% glucose,47 % of the original concentration
same,retained amount relative to expected value without any retention,[4],four times as high
